“Also recorded” adds a separate entry of the source.
Key:
[1] = test system: mice, bleomycin-induced pre-established dermal fibrosis; test: Modified model of bleomycin-induced dermal fibrosis (regression of established fibrosis); type: in vivo, mouse
From the text: To evaluate, whether inhibition of JNK might also be effective for the treatment of established fibrosis, a modified model of bleomycin-induced dermal fibrosis was used. […] Thus, Compound JNKi-1 decreased the level of dermal thickness under the pre-treatment level (127±4% vs 175±8% compared to NaCl injections for 6 weeks, p=0.008 and p=0.021) (FIG. 7A).

[2] = test system: fibroblasts from SSc patients; test: MTT assay, SSc fibroblast viability; type: cell-based, human; conditions: 1 μM, 24-hr incubation
Description: (§1) Dermal fibroblasts from two SSc patients were treated for 24 hours (hr) with Compound JNKi-1 at concentrations from 0.1 μM to 10 μM (0.5% DMSO/99.5% cell culture media). To study the effect of Compound JNKi-1 on growth factor-induced collagen expression, recombinant transforming growth factor beta (TGF-β) (final concentration of 10 ng/mL) or platelet-derived growth factor-BB (PDGF-BB) (final concentration of 40 ng/mL) were added to cells 2 hr after the addition of JNK-inhibitor Compound JNKi-1 for 24 hr. The expression of collagen proteins was analyzed by SirCol assay. The messenger ribonucleic acid (mRNA) levels of extracellular proteins were measured by real-time polymerase chain reaction (PCR). The β-actin mRNA was used as internal control for the measurement of Collagen 1a1 mRNA using PCR. Fibroblast proliferation assay was performed in the presence or absence of 1 μM Compound JNKi-1 for 24 hr with the (3-(4,5-Dimethylthiazol-2-yl)-2,5-diphenyltetrazolium bromide) (MTT) assay.
The isolation of fibroblasts from human SSc patients and culture conditions used in this study have been previously described (Akhmetshina A, Dees C, Pileckyte M, Maurer B, Axmann R, Jüngel A, et al., Dual inhibition of c-abl and PDGF receptor signaling by dasatinib and nilotinib for the treatment of dermal fibrosis, FASEB J. 2008; 22(7):2214-22). […] Data are expressed as mean±standard error of the mean (SEM).

[3] = test system: fibroblasts from SSc patients; test: TGF-β and PDGF-induced total collagen secretion (SirCol assay); type: cell-based, human; conditions: 1 μM
Description: as §1
The isolation of fibroblasts from human SSc patients and culture conditions used in this study have been previously described (Akhmetshina A, Dees C, Pileckyte M, Maurer B, Axmann R, Jüngel A, et al., Dual inhibition of c-abl and PDGF receptor signaling by dasatinib and nilotinib for the treatment of dermal fibrosis, FASEB J. 2008; 22(7):2214-22). […] Data are expressed as mean±standard error of the mean (SEM). […]

[4] = 150 mg/kg for the last 3 weeks of 6 weeks bleomycin

With `O[C@H]1CC[C@H](Nc2ncc3nc(Nc4c(F)cc(F)cc4F)n([C@H]4CCOC4)c3n2)CC1` [JNKi-1, 4-((9-((3S)-tetrahydro-3-furanyl)-8-((2,4,6-trifluorophenyl)amino)-9H-purin-2-yl)amino)-trans-cyclohexanol] the “dermal thickness, normalized to NaCl injections for 6 weeks = 100%” value ([1]; 150 mg/kg BID for the last 3 weeks of 6 weeks bleomycin) was 127±4%, the “accumulation of collagen (hydroxyproline assay)” value [1, 4] was “significantly reduced” and the “number of myofibroblasts, normalized to NaCl injections for 6 weeks = 100%” value [1, 4] was 171±31%. The “regression of established fibrosis / dermal thickening (in words)” value ([1]; treatment for the last 3 weeks of continuous bleomycin challenge) was “induced regression of dermal thickening; also recorded: induced regression of fibrosis”, the “cytotoxic effect / cell viability (MTT)” value [2] was “does not exert its inhibitory effects indirectly by reducing cell viability; also recorded: no cytotoxic effect” and the “TGF-β and PDGF-induced collagen secretion” value [3] was “modestly inhibited”.
